{"source": "patent US20110224197A1", "about": "“PYRIMIDINES AND PYRIDINES USEFUL AS INHIBITORS OF PROTEIN KINASES” (Vertex Pharmaceuticals Incorporated, priority 2008, published 2011)", "key": {"[1]": {"tested_on": "Middle Cerebral Artery Occlusion in adult male Wistar rats", "experiment": "Post Stroke Recovery Model II (MCA electrocoagulation, behavioral tests)", "assay_type": "in vivo, rat", "from_the_text": "Adult male Wistar rats are pre-trained on a battery of behavioral tests including: tray reach, gridwalk, forelimb asymmetry (cylinder bracing), forelimb inhibition (swim test) (see below for detailed description of tests). Following pre-stroke behavioral assessment, the rats received surgery, during which a stroke is induced. The rats are pseudo-randomly divided into 5 equal groups (n=12) ensuring an equal number of right and left strokes within each treatment group. The first group receives sham surgery with vehicle as treatment. Administration of the test compound and vehicle (dose, route, timing) is determined by the sponsor. The core body temperature is maintained at 37° C. (+/−1°).\nFollowing surgery, all animals are behaviorally assessed 1, 7, and 14 d post-stroke. At the conclusion of behavioral assessment, all rats undergo an MRI to determine infarct volume. Group behavioral performance and stroke volume are compared between groups using one way analysis of variance to determine therapeutic benefit of the compound in rate and extent of recovery of function following MCAO stroke.\nEach animal is weighed (average weights were 340 g) and then anesthetized with isoflurane (4% isoflurane carried on 21/min medical grade oxygen to induce surgical plane and then 2% with 2 l/min oxygen to maintain a surgical plane). Following induction of anesthesia each rat is individually marked with an ear-punch and administered a subcutaneous dose of buprenorphine (0.025 mg/kg). Rectal temperature is monitored and maintained at 37° C.+/−1° C. for the duration of the surgery and until the rat is awake and mobile (approximately 3 hr).\nThe rat is then placed into a stereotaxic apparatus positioned such that the lateral aspect of the head was facing up. The skin between the eye […] and ear is shaved and washed with surgical antiseptic scrub. A vertical incision is made midway between the right orbit and external auditory canal. The underlying temporalis muscle is incised, detached from the skull and retracted with care to preserve the facial nerve. Two sutures hold the temporal muscle away from the lateral aspect of the skull. A craniotomy is performed from the posterior zygoma and along the temporal ridge of the cranium extending ventrally to expose the middle cerebral artery (MCA) and olfactory tract. The dura is opened, and the base of the MCA and the anterior portion of the first branch is electrocoagulated ventral to the olfactory tract, resulting in infarction of the right dorsolateral cerebral cortex.\nTime at which stroke occurred is noted upon completion of the electrocoagulation of the MCA. Once bleeding is controlled, the temporal muscle is replaced and the skin sutured. The rat is then removed from the stereotaxic apparatus and moved to the recovery room. A second subcutaneous dose of buprenorphine (0.025 mg/kg) is administered along with 2 cc of Ringers solution. Water, wet rat chow mash, and a warming blanket under 1/2 the cage is made available while in the recovery room. Once the rat is awake and seen to be eating and drinking, it is moved back into its cage in the animal colony.\nForepaw use is measured with a procedure that is adapted from the method devised by Whishaw, O'Connor, and Dunnett (1986). Each animal is food-restricted such that feeding time occurs after testing each day. The animals are placed in test cages (10×18×10 cm high) with floors and fronts constructed of 2-mm bars, 9 mm apart edge to edge. […]"}, "[2]": {"tested_on": "human umbilical vein endothelial cells (HUVEC)", "experiment": "In vitro model of angiogenesis using HUVEC and skin fibroblasts", "assay_type": "cell-based", "details": "HUVEC cultures", "from_the_text": "Compounds are screened for the ability to enhance angiogenesis in human umbilical vein endothelial cells (HUVEC). This method, adapted from Nakatsu et al., Microvas. Res. 2003, describes a protocol that recapitulates the major events essential for new vessel growth: budding, cell migration, cell proliferation, lumen formation, branching, and anastomosis.\nHUVEC are used between P3 and P4. HUVEC are mixed with dextran coated cytodex 3 micro-carriers (Amersham Pharmacia) at a concentration of 400 HUVEC per bead in 1 ml of EGM-2 (2% FBS) medium (Clonetics). Beads with cells are then shaken gently every 20 minutes for 4 hours at 37° C. and 5% CO2. After incubating, beads with cells are transferred to a T-25 tissue culture flask and left for 12-16 hours in 5 ml of EGM-2 at 37° C. and 5% CO2.\nThe following day, beads with cells are washed three times with EGM-2 and re-suspended at a concentration of 200 cell-coated beads/ml in 2.5 mg/ml of fibrinogen (Sigma) with 0.15 U/ml of aprotinin (Sigma) at a pH of 7.4.\n500 uL of fibrinogen/bead solution is then added to 0.625 U of thrombin (Sigma) in one well of a 24 well tissue culture plate. Fibrinogen/Bead solution is allowed to clot for 5 minutes at room temperature and then at 37° C. and 5% CO2 for 20 minutes. 1 mL of EGM-2 with 0.15 U/mL of aprotinin is then added to each well and equilibrated with the fibrin clot for 30 minutes at 37° C. and 5% CO2.\nNext, media is removed from the well and replaced with 1 mL of fresh medium. […]\nAngiogenesis is scored by quantification of images captured on an inverted microscope at 10× and 20× magnification for vessel length, number of vessels and branches per bead using NIH Image J software. […] YFP positive HUVEC are then cultured as described above and quantification of vessel formation is determined by calculating the area under the threshold fluorescence using NIH Image J software. In both cases, enhanced angiogenesis is determined by comparing compound treated cultures with a DMSO control culture at the same time point."}, "[3]": {"details": "concentrations shown to induce β-catenin"}}}
{"smiles": "Cc1nc(-c2ccccc2Cl)nc(Nc2n[nH]c3ncc(F)cc23)c1C", "note": "[Compound I-37, N-(2-(2-chlorophenyl)-5,6-dimethylpyrhnidin-4-yl)-5-fluoro-1H-pyrazolo[3,4-b]pyridin-3-amine]", "values": [{"measurement": "Forelimb inhibition (swimming test) deficit", "setting": "[1]; 7 and 14 days after stroke", "value": "significantly ameliorated this deficit"}, {"measurement": "Gridwalk deficit", "setting": "[1]; 7 and 14 days after stroke", "value": "significantly ameliorated this deficit"}, {"measurement": "Tray reaching deficit compared with vehicle treatment", "setting": "[1]; 7 and 14 days after stroke", "value": "significantly ameliorated this deficit"}, {"measurement": "Forepaw asymmetry (cylinder test) deficit", "setting": "[1]; low dose, 14 days after stroke", "value": "significantly ameliorated this deficit"}, {"measurement": "Adhesive removal test", "setting": "[1]; rat, in vivo", "value": "did not show significant effect"}, {"measurement": "vessel and network formation", "setting": "[2]; 10 nM, 7 days", "value": "increase vessel and network formation"}, {"measurement": "cell proliferation", "setting": "[2]; [3]", "value": "increased cell proliferation was observed"}, {"measurement": "vessel formation", "setting": "[2]; [3]", "value": "vessel formation was inhibited"}]}
